Results from the NIST ThermoML archive (doi:10.1021/je100861u).
± gives the expanded uncertainty stated by the source.

Legend:
[1] = Liquid; Distillation
[2] = refractive index (Na D-line) (dimensionless); settings: 293.15 K; 101.33 kPa; Liquid; Standard Abbe refractometry

| SMILES | Normal boiling temperature [1] [°C] | refractive index [2] |
| --- | --- | --- |
| CC(=O)C(C)O (centres undefined) [2,3-butanolone] | 148.38 ± 0.54 | 1.4198 ± 0.0008 |
| CCCCOC(C)=O [butyl ethanoate] | 125.96 ± 0.5 | 1.3941 ± 0.0007 |
